1 compound from ChEMBL document CHEMBL1131881 (Bioorg Med Chem Lett, 1999) can be followed below.

This experiment concerns the target Sodium-dependent dopamine transporter (Homo sapiens, UniProt Q01959). Put plainly: Binding affinity towards dopamine transporter (DAT).

As usually defined, the IC50 is the concentration at which inhibition is half-maximal.

Each structure is given as a SMILES string.

Sodium-dependent dopamine transporter, sequence (Q01959 whole entry): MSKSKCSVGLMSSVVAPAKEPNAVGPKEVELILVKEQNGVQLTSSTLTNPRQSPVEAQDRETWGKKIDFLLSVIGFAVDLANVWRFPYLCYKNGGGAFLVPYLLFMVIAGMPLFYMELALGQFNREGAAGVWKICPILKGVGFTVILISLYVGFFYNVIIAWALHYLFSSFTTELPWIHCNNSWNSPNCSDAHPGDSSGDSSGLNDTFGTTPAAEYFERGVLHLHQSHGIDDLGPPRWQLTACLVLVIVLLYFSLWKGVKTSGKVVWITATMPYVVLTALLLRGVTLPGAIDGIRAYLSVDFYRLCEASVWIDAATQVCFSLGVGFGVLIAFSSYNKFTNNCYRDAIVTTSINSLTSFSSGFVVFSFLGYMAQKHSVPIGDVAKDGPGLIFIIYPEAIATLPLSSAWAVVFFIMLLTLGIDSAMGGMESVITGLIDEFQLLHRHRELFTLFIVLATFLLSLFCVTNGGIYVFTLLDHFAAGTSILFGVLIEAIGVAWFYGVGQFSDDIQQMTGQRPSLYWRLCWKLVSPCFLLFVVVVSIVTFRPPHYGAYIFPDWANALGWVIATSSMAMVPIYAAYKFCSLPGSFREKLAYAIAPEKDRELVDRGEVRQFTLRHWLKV

Turning to `CCC[C@@H]1CN(C)CC[C@@H]1c1ccc(Cl)cc1`, the IC50 was 3 nM.
